The results in this text go back to patent publication US20220110985A1, “NUTRITIONAL COMPOSITION COMPRISING 2'FUCOSYLLACTOSE AND 3'GALACTOSYLLACTOSE” (N.V. Nutricia, priority 2019, published 2022).

In assay [1] the test system is human peripheral blood mononuclear cells (PBMCs). The experiment in a line: PBMC cell activity (WST-1). Format: cell-based. The note with it: after 24 h; non-stimulated and CD3/CD28 stimulated conditions. The procedure:
Isolation of PBMC from healthy donors: Human peripheral blood mononuclear cells (PBMC) from healthy donors were isolated from buffy coats (Sanquin, Amsterdam, the Netherlands). PBMC were obtained by centrifugation using Leucosep tubes (Greiner Bio-One). PBMC were collected and washed in PBS (Gibco, Thermo Fisher Technologies)+2% heat-inactivated FCS (Invitrogen), followed by hypotonic lysis of erythrocytes with sterile lysis buffer (0.15 M NH4Cl, 0.01 M KHCO3 and 0.1 mM EDTA, pH of 7.4 at 4° C., all from Merck, Darmstadt, Germany). After lysis, the PBMC were resuspended in freezing medium (70% RPMI 1640 medium (Gibco, Thermo Fisher Technologies) supplemented with 10% heat-inactivated FCS and 100 U/ml penicillin-streptomycin, 20% heat-inactivated FCS and 10% DMSO (Sigma)) and cryopreserved.
PBMC activation model: PBMC (0.2·10^6 cell/well) were cultured in 96-well flat bottom plates (Corning). For 24 hours the cells were pre-incubated with 2′-FL (Jennewein), 3′-GL (0-0.3% w/v; Carbosynth) or sodium butyrate (0.2 mM; Sigma Aldrich) and combinations thereof. Subsequently, the cells were CD3/CD28-activated (Pelicluster CD3 and Pelicluster CD28, Sanquin) for an additional 24 hours. After incubation, IFNγ was measured by ELISA in the supernatants (see below). To determine cell activity after stimulation, PBMC were incubated with cell proliferation reagent WST-1 (10 μl; Roche) and/or 10% Triton (5 μl; negative control). After 3 hours, absorbance was measured at OD450 nm and OD650 nm and cell activity was calculated according to manufacturer's instructions.
In general terms: Tetrazolium assays rely on reduction of a dye to a coloured formazan, in cell work by metabolically active cells.

A further assay relates to Klebsiella pneumonia K2. The experiment in a line: Fecal slurry fermentation spiked with pathogens: Klebsiella. Format: cell-based. The conditions noted are these: inoculum of baby 2, spiked. The method, then: (§1) Anaerobic fermentation of fecal slurry samples was tested in a BioLector Pro microfluidics mini multifermentor. Faecal slurry samples were collected from breast fed infants and from formula fed infants. These faecal slurry samples were processed by adding 0.6 grams feces in 40 ml Baby Reichardt V.6 medium+mucus+Ammonium sulfate+lactate and acetate. The resulting solutions were inserted to the BioLector Pro microfluidics mini multifermentor. The test legs were supplemented with 3-GL, 2′-FL, 3′-GL+2′-FL, and GOS/FOS. The control leg was supplemented with sterile water.
(§2) In addition the test legs were supplemented with Clostridium difficile C153 (difficile agar), Salmonella enteriditis S29 (XLD agar), Cronobacter sakasakii E71 (chromogenic agar) or Klebsiella pneumonia K2 (Simons citrate inositol agar). For every NDO and for the control also a pathogen free culture was prepared.
(§3) A 32 well plate that can handle low pH was used. The wells of this plate were filled with fecal solution. 2.5% (w/v) of the different sterile carbohydrate solutions (3′-GL, 2′-FL, 2′-FL/3′-GL (2.0+0.5%). and Glucose were added to the fecal slurry according to a template. […]

The subject of assay [2] is Salmonella enteriditis S29. The assay is described as follows: Fecal slurry fermentation spiked with pathogens: Salmonella. The class given is cell-based. The method, then: as §1, §2, §3
The subject of assay [3] is infant intestinal microbiota. The experiment in a line: quad-SHIME infant intestinal microbiota model (SCFA, glycoprofile). Format: cell-based, human infant faecal inoculum. The arrangement: Butyrate (Mean ± SD) / Iso-Butyrate (Mean ± SD) / Acetate (Mean ± SD): unit not given here. The note with it: distal colon. An excerpt:
A faecal sample from a healthy infant born via C-section, exclusively breastfed with no history of antibiotic usage, was used as inoculum to simulate the infant intestinal microbiota in the colon compartments of a quad-SHIME®—a dynamic model of the human gastrointestinal tract comprises 4 SHIME® units running in parallel and each SHIME® unit is composed of 3 reactors simulating the stomach and small intestine, proximal and distal colons.

As to “Gal (beta 1-3)-Gal (beta 1-4)-Glc [3′-GL]”, the “Immune cell activity as measured by WST, in words” value in assay [1] was “decrease in activation”. Moreover, in the assay on Klebsiella pneumonia K2, the Klebsiella growth result is “most inhibited”.
Consider `C[C@@H]1O[C@@H](O[C@H]2[C@H](O[C@H]3[C@H](O)[C@@H](O)C(O)O[C@@H]3CO)O[C@H](CO)[C@H](O)[C@@H]2O)[C@@H](O)[C@H](O)[C@@H]1O` (stereo partly drawn) [2′-FL, α-L-Fuc-(1→2)-β-D-Gal-(1→4)-D-Glc], for which the “Immune cell activity as measured by WST, in words” value in assay [1] is given as “significantly increased”. In addition, in assay [2] (inoculum of baby 1, spiked), the Salmonella growth result is on record as “most restricted”. Moreover, the Salmonella growth entry in assay [2] (inoculum of baby 2, spiked) is “most restricted”. Also, in assay [3] (D1-D3), the “Acetate (Mean ± SD)” value was found to be 38.67 ± 10.25, the “Butyrate (Mean ± SD)” value came out at 0 ± 0, the “Iso-Butyrate (Mean ± SD)” value is on record as 0 ± 0 and the “Propionate (Mean ± SD)” value is on record as 10.17 ± 3.01. Further, in assay [3] (D4-D11), the “Acetate (Mean ± SD)” value is recorded as 26.22 ± 0.97, the “Butyrate (Mean ± SD)” value came out at 0.74 ± 0.49, the “Iso-Butyrate (Mean ± SD)” value stood at 0.68 ± 0.75 and the “Propionate (Mean ± SD)” value is given as 6.58 ± 0.49. For the same compound, in assay [3] (D12-D15), the “Acetate (Mean ± SD)” value is given as 22.96 ± 1.04, the “Butyrate (Mean ± SD)” value came out at 0.99 ± 0.09, the “Iso-Butyrate (Mean ± SD)” value worked out at 0.93 ± 0.21 and the “Propionate (Mean ± SD)” value is 6.13 ± 0.63. Also, in assay [3] (relative to control and scGOS/lcFOS groups), the “butyrate generation, in words” value is “generated earlier in the distal colon and at a higher concentration”.
